Assay results from PMC9605497, “Potential of Epidermal Growth Factor-like Peptide from the Sea Cucumber Stichopus horrens to Increase the Growth of Human Cells: In Silico Molecular Docking Approach” (Marine Drugs, 2022).
Several values for one entry are separate records, joined by “and”; a condition that tells them apart may be missing. Equal values may be shown once. Entries after “also recorded” stand apart in the source; their conditions may differ.

Key:
[1] = system: human melanoma cells (CRL-1872); assay: Cell morphology observation; assay type: cell-based
Experimental: (§1) Human melanoma cells (CRL-1872) were purchased from ATCC, Rocksville, MD, USA. Cells were cultured in a complete growth medium, which consisted of Minimum Essential Medium (MEM) (Gibco, Waltham, MA, USA) supplemented with 10% fetal bovine serum (FBS) (Invitrogen, Waltham, MA, USA) and 1% antibiotic–antimycotic (Invitrogen, Waltham, MA, USA), in a humidified incubator at 37 °C, equilibrated with 5% CO2. Cells were subcultured every two days until reaching confluency in T25 flask (TPP, Trasadingen, Switzerland) before being seeded in designated plates for specific experiment objectives.
(§2) Cells were seeded at 80,000 cells per well in a 24-well plate containing 400 µL of complete growth medium. After 24 h of culture, the medium was removed, washed once with PBS, replaced with serum-free medium and left to culture for another 16 h. The medium was removed and replaced with corresponding treatment medium, each in triplicates; 10 nM and 50 nM of Sh-EGFl-1, 10 nM and 50 nM of rhEGF were used as a positive control and serum-free medium was used as a negative control. Cells were cultured in a single plate to track their growth every 24 h during the four days of experiment. […] A crossed line was made at the bottom of each well to mark the four cell-counting areas that were recorded daily using a microscope digital camera. Cells were counted manually based on the images visualized using ImageJ version 2.0.

human EGFR = assay: Ligand binding assay with biotinylated peptide (NeutrAvidin-HRP/ABTS, 405 nm); conditions: for Relative binding: melanoma cells, 1 h at 37 °C, (OD x nM - OD 0 nM)/OD 0 nM at 405 nm, triplicates; for optimum concentration for binding to EGFR: concentrations tested 10, 50 and 500 nM
Experimental: An experiment was performed to test the ability of Sh-EGFl-1 peptide interaction with human receptor. Ligand binding assay, adapted from King et al. was performed with modifications using human cells. Both Sh-EGFl-1 and rhEGF were first conjugated with N-hydroxysuccinimidobiotin (NHS-biotin) and were added to human cells. Any binding of peptide to EGFR was detected through the reaction of NeutrAvidin conjugated with horseradish peroxidase enzyme and 2,2′-azino-bis-3-ethylbenzothiazoline-6-sulfonic acid (ABTS) as substrate.
A short peptide sequence derived from the protein translation of Contig 498513, was submitted to order. The 4.9 kDa Sh-EGFl-1 peptide (H-NINECFSSPCENQGICQDEIDGYNCVCQPGFTGTHCESSMLNHVI-OH) was synthesized by Mimotopes Pty. Ltd., Australia through a Fmoc solid-phase peptide chemistry method. A master stock concentration of 1 mg/mL was prepared by diluting lyophilized peptide with PBS buffer pH 7.4. Recombinant human EGF (rhEGF) (H-MNSDSECPLSHDGYCLHDGVCMYIEALDKYACNCVVGYIGERCQYRDLKWWELR-OH) was purchased from Thermo Scientific. For the cell proliferation assay and morphology observation experiments, peptides were added fresh into the serum-free growth medium to concentrations of 10 nM and 50 nM. For the binding affinity assay experiment, biotinylation of Sh-EGFl-1 and rhEGF peptides with NHS–biotin (Sigma Aldrich, Burlington, MA, USA) was performed according to the manufacturer’s instructions. The diluted peptides in PBS pH 7.4 were changed into carbonate buffer 0.1 M carbonate buffer pH 9.5 (0.07 M sodium bicarbonate, 0.03 M sodium carbonate) for an optimal biotinylation environment. A 10 X volume of cold acetone was added to the peptides and vortexed for 15 s. The mixture was incubated for 30 min at −20 °C before being centrifuged at 16,100× g for 24 min at 4 °C. The supernatant was discarded and the pellet was air-dried and fully dissolved in carbonate buffer pH 9.5. A total of 20 mg/mL of NHS–biotin was prepared in 1 mL DMSO. A volume of 0.13 µL and 0.1 µL of NHS–biotin was added to the Sh-EGFl-1 and rhEGF peptides, respectively. Both reaction mixtures were vortexed for a while and incubated in a thermoblock with 400 rpm shaking speed for 4 h at room temperature. Any unattached biotin molecules were sieved out using a PD-10 desalting column containing Sephadex G-25 medium (GE Life Sciences, Chicago, IL, USA). PBS buffer pH 7.4 was used as eluent to collect the conjugated peptides out from the column. The concentration of the biotin-conjugated peptides was determined using a NanoDrop spectrophotometer (Thermo Scientific, Waltham, MA, USA) and BCA assay.
Melanoma cells were seeded at 90% confluency in a 96-well plate and cultured in a humidified incubator at 37 °C, equilibrated with 5% CO2 until the next day. When all cells were attached to the surface, the plate was placed on ice for a while to reduce the protein metabolism rate, so the cells were not easily detached. The medium was removed and cells were washed twice using 200 µL of cold PBS buffer. A volume of 100 µL cold formalin was added to the cells to enhance cell attachment to the surface. The plate was placed on ice for the first 5 min, then continued for another 15 min incubation at room temperature. Cells were washed twice using 200 µL of cold PBS. A total of 100 µL of melanoma growth medium (MEM basal medium and 3% FBS) was added and cells were incubated at 37 °C for 30 min. The medium was discarded and replaced with 100 µL of treatment medium (MEM basal medium supplemented with 0.1% BSA, 200 mM HEPES buffer and Sh-EGFl-1 and rhEGF at concentrations of 10, 50 and 500 nM respectively). Cells were incubated at 37 °C for 1 h. The medium was discarded, and cells were washed twice using 200 µL cold PBS and 0.3 M NaCl. A total of 100 µL horseradish peroxidase (HRP) conjugated with NeutrAvidin solution (Thermo Scientific, Waltham, MA, USA) was added with a concentration of 1:10,000 onto cells and incubated at 37 °C for 1 h. […]

[2] = system: human melanoma cells (CRL-1872); assay: Cell proliferation assay (cell counting); assay type: cell-based; conditions: for Average cell number: average over 0, 24, 48, 72 and 96 h; for number of cells vs serum-free medium: four days, triplicates; for duration of temporary increment of cell numbers: cell numbers dropped drastically after the medium change
Experimental: as §1, §2

[3] = 50 nM, recovery from serum starvation

Row | Substance | cell morphology / attachment [1, 3] | Relative binding (human EGFR; 10 nM) | Relative binding (human EGFR; 50 nM) | Relative binding (human EGFR; 500 nM) | optimum concentration for binding to EGFR (human EGFR) | Average cell numbers ([2]; 0 h, 10 nM) | Average cell numbers ([2]; 0 h, 50 nM) | number of cells vs serum-free medium ([2]; 50 nM) | duration of temporary increment of cell numbers ([2]; 50 nM) | Average cell numbers ([2]; 24 h, 10 nM) | Average cell numbers ([2]; 24 h, 50 nM) | Average cell numbers ([2]; 48 h, 10 nM) | Average cell numbers ([2]; 48 h, 50 nM) | Average cell numbers ([2]; 72 h, 10 nM) | Average cell numbers ([2]; 72 h, 50 nM) | Average cell numbers ([2]; 96 h, 10 nM) | Average cell numbers ([2]; 96 h, 50 nM) | further results
1 | H-MNSDSECPLSHDGYCLHDGVCMYIEALDKYACNCVVGYIGERCQYRDLKWWELR-OH (disulfide) [rhEGF, Recombinant human EGF purchased from Thermo Scientific, reference compound] | better recovery as the cells were elongated when they attached to the flask surface | 12% | 4% and 3.62% | 7.57% | 10 nM | 2115 | 1331 | significantly higher | 48 h | 712 | 1643 | 399 | 1741 | 497 | 663 | 339 | 438 | Average cell number ([2]; 10 nM): 810; Average cell number ([2]; 50 nM): 1166
2 | H-NINECFSSPCENQGICQDEIDGYNCVCQPGFTGTHCESSMLNHVI-OH (disulfide) [Sh-EGFl-1, 45 amino acid EGF-like peptide from Stichopus horrens contig 498513, synthesized by Fmoc solid-phase peptide chemistry] | better recovery as the cells were elongated when they attached to the flask surface | 5% | -0.68% | ~10% and 10% | 500 nM | 1781 | 1382 | significantly higher | 48 h | 1413 | 1637 | 1559 | 1753 | 1674 | 1094 | 1816 | 862 | cell morphology / attachment ([1]; 10 nM, recovery from serum starvation and after medium change at 48 h): better recovery as the cells were elongated when they attached to the flask surface; also recorded: most of the cells to lose attachment from the flask except in the presence of 10 nM Sh-EGFl-1; number of cells vs serum-free medium ([2]; 10 nM): not significantly different compared with the serum-free treatment; cell number over time ([2]; 10 nM, until day 4): increased numbers until the end of the experiment on day 4; human cell growth ([2]; lower concentration, cell proliferation assay): significantly improved; cell adherence, survival and proliferation ([2]; melanoma cells): cells are able to maintain their adherent properties, as well as survive and proliferate, albeit rather slowly
